Measurements from PMC11482831 (bioRxiv, 2024).
Bridge positions count the residues as written; N and C are the ends. Ends that are not written are not given here.

Experiments:
[1] = system: AMY1R (CTR:RAMP1); test: Native PAGE mobility shift assay, single-point, AMY1R; format: biochemical, human; conditions: 10 μM agonist, no mGs, detergent-solubilized (LMNG/CHS), in-gel mCitrine fluorescence, qualitative, three replicates
[2] = system: AMY2R (CTR:RAMP2); test: Native PAGE mobility shift assay, single-point, AMY2R; format: biochemical, human; conditions: 10 μM agonist, no mGs, detergent-solubilized (LMNG/CHS), in-gel mCitrine fluorescence, qualitative, three replicates
[3] = biological target: T1, AMY3R (HiBiT-CTR:mCitrine-RAMP3) (Homo sapiens, UniProt O60896+P30988); test: CTR:RAMP cell surface proximity BRET assay, AMY3R; format: cell-based; conditions: 300 nM agonist, HEK293 cells, room temperature, 30 min, pH 7.4
T1 sequence (P30988 25-474): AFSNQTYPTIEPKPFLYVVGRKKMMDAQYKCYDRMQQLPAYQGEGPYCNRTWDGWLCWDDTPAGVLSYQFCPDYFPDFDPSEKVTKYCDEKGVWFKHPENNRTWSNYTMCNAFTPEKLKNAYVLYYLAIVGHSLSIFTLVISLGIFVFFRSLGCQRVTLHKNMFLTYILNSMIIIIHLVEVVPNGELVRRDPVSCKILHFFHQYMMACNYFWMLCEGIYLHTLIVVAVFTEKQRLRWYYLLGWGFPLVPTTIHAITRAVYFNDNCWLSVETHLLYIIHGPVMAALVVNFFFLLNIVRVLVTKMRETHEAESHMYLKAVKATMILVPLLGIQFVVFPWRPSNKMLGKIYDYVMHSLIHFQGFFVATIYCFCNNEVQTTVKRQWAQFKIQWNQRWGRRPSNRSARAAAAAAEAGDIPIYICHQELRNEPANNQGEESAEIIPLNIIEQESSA

[4] = biological target: CTR:R1 (AMY1R) (Homo sapiens, UniProt O60894+P30988); test: Native PAGE agonist titration with excess SUMO-miniGs, AMY1R; conditions: 50 μM SUMO-miniGs
Chain of CTR:R1 (AMY1R) (O60894 24-148, one chain of several): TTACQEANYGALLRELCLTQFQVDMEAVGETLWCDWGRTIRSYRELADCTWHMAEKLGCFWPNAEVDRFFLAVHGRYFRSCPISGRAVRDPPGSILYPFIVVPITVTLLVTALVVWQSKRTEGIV

[5] = biological target: AMY1R (HiBiT-CTR:mCitrine-RAMP1) (Homo sapiens, UniProt O60894+P30988); test: CTR:RAMP cell surface proximity BRET assay, AMY1R; format: cell-based; conditions: 300 nM agonist, HEK293 cells, room temperature, 30 min, pH 7.4
Chain of AMY1R (HiBiT-CTR:mCitrine-RAMP1) (O60894 24-148, one chain of several): as above

[6] = system: AMY2R (HiBiT-CTR:mCitrine-RAMP2); test: CTR:RAMP cell surface proximity BRET assay, AMY2R; format: cell-based, human; conditions: 300 nM agonist, HEK293 cells, room temperature, 30 min, pH 7.4
[7] = biological target: T2, CTR:R3 (AMY3R) (Homo sapiens, UniProt O60896+P30988); conditions: 50 μM SUMO-miniGs, agonist titration
T2 sequence (P30988 25-474): T1 sequence (P30988 25-474)
T2 sequence (O60896 25-148): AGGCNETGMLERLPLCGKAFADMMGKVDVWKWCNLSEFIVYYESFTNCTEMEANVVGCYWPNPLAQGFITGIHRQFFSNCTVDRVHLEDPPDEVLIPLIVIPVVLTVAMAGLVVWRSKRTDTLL

[8] = cited from earlier work
[9] = biological target: CTR:R2 (AMY2R) (Homo sapiens, UniProt O60895+P30988); conditions: 50 μM SUMO-miniGs, agonist titration
Chain of CTR:R2 (AMY2R) (O60895 55-175, one chain of several): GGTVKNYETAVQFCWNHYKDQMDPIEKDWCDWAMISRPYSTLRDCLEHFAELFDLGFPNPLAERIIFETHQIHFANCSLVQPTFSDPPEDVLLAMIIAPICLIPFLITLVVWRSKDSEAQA

[10] = biological target: CTR + RAMP1 (Homo sapiens, UniProt O60894+P30988); test: cAMP signaling CAMYEL biosensor BRET assay in COS-7 cells, CTR + RAMP1; conditions: 30 min, 37°C, vs CTR alone
Chain of CTR + RAMP1 (O60894 27-148, one chain of several): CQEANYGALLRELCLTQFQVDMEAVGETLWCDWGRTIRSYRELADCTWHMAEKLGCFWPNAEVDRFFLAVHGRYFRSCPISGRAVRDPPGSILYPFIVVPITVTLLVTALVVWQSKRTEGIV

[11] = biological target: T3, CTR + RAMP3 (Homo sapiens, UniProt O60896+P30988); test: cAMP signaling CAMYEL biosensor BRET assay in COS-7 cells, CTR + RAMP3; conditions: 30 min, 37°C
T3 sequence (P30988 25-474): T1 sequence (P30988 25-474)
T3 sequence (O60896 24-148): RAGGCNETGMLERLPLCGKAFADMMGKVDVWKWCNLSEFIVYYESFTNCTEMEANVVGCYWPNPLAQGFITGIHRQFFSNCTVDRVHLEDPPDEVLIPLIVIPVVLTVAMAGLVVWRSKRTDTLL

[12] = biological target: AMY1R on cells (HiBiT-CTR.25–474 : mCitrine-RAMP1.24–148) (human) (UniProt O60894); test: FRET or BRET

Chain of human αCGRP (P06881 83-119): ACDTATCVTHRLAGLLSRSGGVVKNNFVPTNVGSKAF

Change in CTR:RAMP proximity BRET signal, real-time [3] | Change in CTR:RAMP proximity BRET signal, real-time [5] | Subunit dissociation (increase in free RAMP3) [7] | Substance | Change of subunit distribution (free RAMP1 / AMY1R heterodimer) [1] | Change of subunit distribution (AMY2R heterodimer / oligomers) [2] | Effect on CTR-RAMP1 association/dissociation, free RAMP1 [4] | Change in CTR:RAMP proximity BRET signal, real-time [6] | further results
no effect |  |  | rat amylin [rAmylin] | reduced free RAMP1 and increased the amount of the AMY1R heterodimer | appeared to increase the amount of AMY2R heterodimer | decreased free RAMP1 with increasing agonist |  | 
decreased the BRET signal | similarly decreased it | promoted AMY3R dissociation | salmon calcitonin [sCT] | did not appreciably change the free RAMP1 | induced formation of a higher order oligomeric species of unknown molecular composition | little or no effect on subunit association/dissociation | a brief initial decrease followed by a gradual increase | 
 |  |  | pramlintide (KCNTATCATQRLANFLVHSSNNFGPILPPTNVGSNTY-NH2; disulfide 2-7; UniProt P10997 34-70, looked up, variant A25P S28P S29P) |  |  |  |  | Insulin adjunct therapy, glycemic control ([8]; ref [8]): improved glycemic control
 |  |  | cagrilintide (KCNTATCATQRLAEFLRHSSNNFGPILPPTNVGSNTP; chains of the INN, looked up) |  |  |  |  | Weight loss in clinical trials ([8]; ref [9]-[12]): promote substantial weight loss
decreased the BRET signal | similarly decreased it | promoted AMY3R dissociation | human calcitonin [hCT] | did not appreciably change the free RAMP1 | induced formation of a higher order oligomeric species of unknown molecular composition | little or no effect on subunit association/dissociation | a brief initial decrease followed by a gradual increase | Quaternary complex formation (in words) [9]: little if any quaternary complex; Quaternary complex formation (in words) [7]: little if any quaternary complex; Potency change on RAMP1 co-expression, cAMP [10]: did not change hCT potency; Steepness of cAMP concentration-response curve [11]: steeper than the other curves; Potency change on RAMP3 co-expression, cAMP ([11]; vs CTR alone): decreased hCT potency
 |  |  | human αCGRP (from UniProt P06881 83-119) (peptide) |  |  |  |  | EC50 [12]: 30 nM
